Experimental data reported in patent publication US6951731B2, “Method for evaluating inhibition of aspartic proteases” (priority 2001, dated 2005).
Where two headings read alike, the source gives them in different places. Where a SMILES comes first, the peptide text is derived from it. [ ]: non-standard residue; d: D form. The star is where a group is joined. Sta = CC(C)C[C@H](N)[C@@H](O)CC(=O)O; Isovaleryl = CC(C)CC(=O)*

How the values were obtained:
[1] = target: T1, pepsin (Sus scrofa, UniProt P00791); experiment: Kinetics and solvent isotope effects of pepsin acting on synthetic substrates; format: biochemical, porcine; settings: for kcat (fitted pH-independent kinetic constant): re-analysis of Hunkapillar & Richards data
T1 construct: formed from pepsinogen A by limited proteolysis
T1 sequence (P00791 60-385): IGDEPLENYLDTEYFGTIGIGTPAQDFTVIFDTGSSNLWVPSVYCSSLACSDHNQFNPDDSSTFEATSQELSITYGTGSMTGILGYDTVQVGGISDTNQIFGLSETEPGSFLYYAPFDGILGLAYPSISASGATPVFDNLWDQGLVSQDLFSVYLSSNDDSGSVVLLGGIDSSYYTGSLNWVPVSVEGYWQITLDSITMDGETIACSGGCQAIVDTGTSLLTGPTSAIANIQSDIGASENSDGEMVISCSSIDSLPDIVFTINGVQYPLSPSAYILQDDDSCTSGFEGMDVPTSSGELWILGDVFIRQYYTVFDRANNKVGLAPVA
Protocol: FIG. 2: Kinetics of pepsin acting on N-trifluroacetyl-L-phenylalanine as a function of pH (A) and pD (B). The fitted pH-independent kinetic constants are kcat=0.038±0.006 min^−1 in H2O and kcat=[…] in D2O. The dotted line indicates the range of carboxyl pKs consistent with the fitted line in D2O.
The response of low-barrier hydrogen bonds to D2O, as described herein, finally solves this 92 year-old mystery and simultaneously provides a means to evaluate the efficacy of potential aspartic protease inhibitors. During hydrolysis of N-trifluroacetyl-L-phenylalanine, Hunkapillar & Richards^10 observed bell-shaped pH profiles which were shifted to the right, but the upper pK profiles shifted to the left, thereby bringing them closer together. Normally, D2O shifts all pKs to the right about half a unit because of the fractionation factor of H3O^+.^11
The fit to the BELL rate equation of data obtained in H2O converged with pKs of 2.9±0.1 and 4.5±0.1, while those in D2O converged to the default separation of only 0.6 units, the minimum that is statistically possible. The fitted curve in FIG. 2B is the same for identical pKs of 3.84±0.08 or separated pKs of 3.5 and 4.1—or anything in between. Unknown in 1972, low-barrier hydrogen bonds are now understood to cause opposite shifts in the pKs of the conjugate bases participating in the bond. Both protonation and deprotonation of the low-barrier hydrogen bond complex are made more difficult, which shifts apparent pKs outwards in H2O but less so in D2O.^7
By comparing the maximal values of their fitted curves, Hunkapillar & Richards estimated that ^D2Okcat≈3. However, the appropriate comparison note between the absolute maxima, but between the pH-independent maxima,^11 represented by the horizontal bars in FIGS. 2A and 2B. This ratio yields ^D2Okcat=1.8±0.4 for pKs separated by 0.6 units, and lower values if the fractionation factor is greater than 0.3. […]

[2] = target: T1, pepsin; settings: cited from earlier work; for D2Okcat (solvent isotope effect): pepsin, synthetic peptide substrate
[3] = target: T1, pepsin; settings: cited from earlier work
[4] = target: T2, HIV-1 protease (Human immunodeficiency virus type 1 group M subtype B, UniProt P04585); settings: complex between HIV-1 protease and pepstatin; cited from earlier work
[5] = target: T2, HIV-1 protease; settings: cited from earlier work
[6] = product inhibition, substrate Ac-Ser-Glu-Asp-Tyr*Phe-Leu-Asp-Gly-NH2 (SEQ. ID. NO: 2), read-out: Kii
[7] = product inhibition, substrate Ac-Ser-Glu-Asp-Tyr*Phe-Leu-Asp-Gly-NH2 (SEQ. ID. NO: 2), read-out: Kis
[8] = substrate Ac-Ser-Glu-Asp-Tyr*Phe-Leu-Asp-Gly-NH2 (SEQ. ID. NO: 2), KH/KD
[9] = pH 4.5, substrate Ac-Ser-Glu-Asp-Tyr*Phe-Val-Val-NH2 (SEQ. ID. NO: 6)

O=C(O)[C@H](Cc1ccccc1)NC(=O)C(F)(F)F [N-trifluroacetyl-L-phenylalanine]
kcat (fitted pH-independent kinetic constant) ([1]; in D2O): 0.022±2 min^−1
kcat (fitted pH-independent kinetic constant) ([1]; in H2O): 0.038±0.006 min^−1
D2Okcat ([1]; ratio of pH-independent maxima, pKs separated by 0.6 units): 1.8±0.4
D2Okcat ([2]; estimated by Hunkapillar & Richards from maximal values of fitted curves): ≈ 3

CC(C)CC(=O)N[C@H](C(=O)N[C@H](C(=O)N[C@@H](CC(C)C)[C@@H](O)CC(=O)N[C@@H](C)C(=O)N[C@@H](CC(C)C)[C@@H](O)CC(=O)O)C(C)C)C(C)C [pepstatin] (Isovaleryl-VV[Sta]A[Sta]-OH)
D2Ok on slow onset of inhibition ([3]; pre-incubation experiments with free enzyme): 0.69±0.09
D2Ok on slow onset of inhibition ([3]; when catalysis is in progress): 1.25±0.09
Low-barrier hydrogen bond signal in proton NMR of the inhibited complex [4]: negative results

Ac-Ser-Glu-Asp-Tyr (SEDY; printed: Ser-Glu-Asp-Tyr)
Ki [5, 6]: 12 mM
Ki [5, 7]: 3.8 mM
D2OKii (solvent isotope effect on Kii) [5, 8]: 3.8 ± 1.3
D2OKis (solvent isotope effect on Kis) [5, 8]: 4.2 ± 1.6

Leu-Ser-Nph-Nle-Ala-Leu-OMe
D2Okcat (solvent isotope effect) [2]: 1.51±0.02

Lys-Lys-Ala-Lys-Phe-Nph-Arg-Leu
D2Okcat (solvent isotope effect) [2]: 2.02±0.15

Phe-Leu-Asp-Gly-NH2 (FLDG; printed: Phe-Leu-Asp-Gly-)
Ki [5, 6]: 4 mM
Ki [5, 7]: 12 mM
D2OKii (solvent isotope effect on Kii) [5, 8]: 3.0 ± 0.9
D2OKis (solvent isotope effect on Kis) [5, 8]: 1.1 ± 0.4

RASEDY [Ac-Arg-Ala-Ser-Glu-Asp-Tyr]
Ki ([5]; pH 3.5, substrate Ac-Ser-Glu-Asp-Tyr*Phe-Val-Val-NH2 (SEQ. ID. NO: 6), pattern uncompetitive, read-out: Kii): 0.23 mM
D2OKii (solvent isotope effect on Kii) [5, 9]: 1.0 ± 0.8
D2OKis (solvent isotope effect on Kis) [5, 9]: 1.2 ± 0.4
D2OKii (solvent isotope effect on Kii) ([5]; pH 6, substrate SEQ. ID. NO: 4): 3.8 ± 1.3
D2OKis (solvent isotope effect on Kis) ([5]; pH 6, substrate SEQ. ID. NO: 4): 4.2 ± 1.6
Ki ([5]; pH 6, substrate printed Ac-Ser-Glu-Asp-Tyr*Phe-Leu-Asp-Gly-NH2 (SEQ. ID. NO: 4), read-out: Kii): 8 mM
Ki ([5]; pH 6, substrate printed Ac-Ser-Glu-Asp-Tyr*Phe-Leu-Asp-Gly-NH2 (SEQ. ID. NO: 4), read-out: Kis): 7 mM
